These results are taken from patent US20240043403A1, “HETEROARYL CARBOXAMIDE COMPOUND” (Astellas Pharma Inc., priority 2020, published 2024).

The term IC50 denotes the concentration at which inhibition is half-maximal.

In the assay the target is human recombinant DGK ξ (Homo sapiens (Human), UniProt Q13574). The assay can be described thus: Evaluation of DGK ξ inhibitory effect (ADP-Glo Kinase Assay). Conditions: ADP-Glo luminescence. Format: biochemical. Here is the method: Test Example 1. Evaluation of DGK ξ Inhibitory Effect
Sequence of human recombinant DGK ξ (Q13574 whole entry): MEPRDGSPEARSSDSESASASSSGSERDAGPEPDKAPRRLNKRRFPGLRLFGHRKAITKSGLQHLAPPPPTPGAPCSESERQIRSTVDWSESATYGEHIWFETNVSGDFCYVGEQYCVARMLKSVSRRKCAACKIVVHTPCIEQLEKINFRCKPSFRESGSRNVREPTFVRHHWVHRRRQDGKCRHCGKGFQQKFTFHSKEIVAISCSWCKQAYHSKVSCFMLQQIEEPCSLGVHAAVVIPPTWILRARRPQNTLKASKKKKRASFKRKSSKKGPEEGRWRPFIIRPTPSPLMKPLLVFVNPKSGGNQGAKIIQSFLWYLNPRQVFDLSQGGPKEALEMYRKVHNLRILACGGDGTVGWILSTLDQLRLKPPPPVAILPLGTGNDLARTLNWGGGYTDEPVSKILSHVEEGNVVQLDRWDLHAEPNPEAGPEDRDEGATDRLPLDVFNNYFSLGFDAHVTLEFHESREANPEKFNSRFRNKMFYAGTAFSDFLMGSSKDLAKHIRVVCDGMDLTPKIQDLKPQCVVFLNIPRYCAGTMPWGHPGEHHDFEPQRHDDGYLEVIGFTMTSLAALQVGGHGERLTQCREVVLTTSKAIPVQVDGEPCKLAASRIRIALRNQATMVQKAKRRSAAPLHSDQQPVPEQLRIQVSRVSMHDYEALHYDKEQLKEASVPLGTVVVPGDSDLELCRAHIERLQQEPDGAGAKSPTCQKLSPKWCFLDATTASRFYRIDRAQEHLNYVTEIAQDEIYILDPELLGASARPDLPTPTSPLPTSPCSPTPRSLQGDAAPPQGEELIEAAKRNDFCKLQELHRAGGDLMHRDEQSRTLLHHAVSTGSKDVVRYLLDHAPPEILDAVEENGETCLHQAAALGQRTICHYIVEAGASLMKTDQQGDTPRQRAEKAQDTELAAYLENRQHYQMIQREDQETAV
The inhibitory effect of a test compound on human recombinant DGK ξ (Cama Biosciences, Inc., 12-410-20N) was examined by the following method in which detection is performed with ADP-Glo™ Kinase Assay (Promega Corporation).
To a 384-well plate (Greiner Bio-One Co., Ltd.), 3 μL of a DGK ξ enzyme dissolved in an assay buffer (40 mM Tris-HCl pH 7.5, 10 mM MgCl2, 1 mM dithiothreitol (DTT) and 0.1 mg/mL bovine serum albumin (BSA)) (90 ng/mL) was added, and 3 μL of the test compound diluted with the same assay buffer was added so that an intended final concentration was obtained. The mixture was left standing at room temperature for 15 minutes, 3 μL of a substrate (150 μM 1-oleoyl-2-acetyl-sn-glycerol (Sigma-Aldrich Co. LLC), 480 μM phosphatidylserine (Avanti, Inc.) and 150 μM UltraPure-ATP (attached to ADP-Glo)) was then added, and the mixture was left standing at room temperature for 30 minutes to react. Thereafter, 3 μL of an ADP-Glo Reagent was added, and the mixture was left standing at room temperature for 40 minutes to stop the enzyme reaction. Further, 6 μL of a Kinase-Detection Reagent was added, the mixture was left standing at room temperature for 30 minutes, and the luminescence was then measured using ARVO X3 (PerkinElmer, Inc.). The half maximal inhibitory concentration (IC50) was calculated by Sigmoid-Emax model non-linear regression analysis, where the signal value in solvent treatment was set to 0% inhibition and the signal value without addition of the DGK ξ enzyme was set to 100% inhibition. […] In the table. Ex represents the number of each Example described below.
In general terms: ADP-Glo first removes unused ATP, then detects ADP through luciferase.
Regarding `NCCCn1cc(-c2c(NC(=O)c3ccn(-c4ccnnc4)n3)ccc(OC3CCC3)c2C(F)(F)F)cn1` [Example 74], the IC50 is 16 nM.

On to `CN1CCN(c2c(NC(=O)c3cccn(CC(F)F)c3=O)ccc(Oc3ccccc3F)c2C(F)(F)F)C[C@H]1CN` [Example 21], for which the IC50 was 1100 nM.

For the compound `NC[C@@H]1CCCN(c2c(NC(=O)c3coc(-c4ccnnc4)n3)ccc(-c3ccccc3F)c2C(F)(F)F)C1` [Example 42], the IC50 was 150 nM.

Consider `CNCCOc1cc(-c2c(NC(=O)c3coc(-c4ccnnc4)n3)ccc(OC3CCC3)c2C(F)(F)F)ccn1` [Example 69], for which the IC50 amounted to 60 nM.

Consider `CN1CCN(c2c(NC(=O)c3ccn(-c4ccnnc4)n3)ccc(OC3CCC3)c2C(F)(F)F)C[C@@H]1CN` [Example 51], for which the half-inhibitory concentration (IC50) stood at 17 nM.

For `CNC[C@H]1CN(c2c(NC(=O)c3ccn(-c4ccnnc4)n3)ccc(OC3CC3)c2C(F)(F)F)CCN1C` [Example 88], the IC50 is 110 nM.

Take `NC[C@@H]1CCCN(c2c(NC(=O)c3cccn(CC(F)F)c3=O)ccc(Oc3ccccc3F)c2C(F)(F)F)C1` [Example 11]: the IC50 stood at 35 nM.

For the compound `NC[C@@H]1CCCN(c2c(NC(=O)c3ccn(CC(F)F)n3)ccc(Oc3ccc(F)cc3)c2C(F)(F)F)C1` [Example 8], the IC50 was found to be 88 nM.

Turning to `CNC[C@H]1CN(c2c(NC(=O)c3cc(C)n(-c4ccnnc4)n3)ccc(Oc3ccccc3F)c2C(F)(F)F)CCN1C` [Example 92], the IC50 came to 92 nM.

In the case of `CNC[C@H]1CN(c2c(NC(=O)c3ccn(-c4ccnnc4)n3)ccc(Oc3ccccc3F)c2C(F)(F)F)CCN1C` [Example 122, N-[4-(2-fluorophenoxy)-2-{(3S)-4-methyl-3-[(methylamino)methyl]piperazin1-yl}-3-(trifluoromethyl)phenyl]-1-(pyridazin-4-yl)-1H-pyrazole-3-carboxamide monobutanedioate], the IC50 was 3.2 nM.

With `CN1CCN(c2c(NC(=O)c3coc(-c4ccnnc4)n3)ccc(Oc3ccccc3F)c2C(F)(F)F)C[C@H]1CN` [Example 55], the IC50 was 12 nM.

On to `CNC[C@H]1CN(c2c(NC(=O)c3coc(-c4ccnnc4)n3)ccc(-c3ccccc3F)c2C(F)(F)F)CCN1C` [Example 60], for which the IC50 was determined as 27 nM.

Take `CN1CCN(c2c(NC(=O)c3ccn(-c4ccnnc4)n3)ccc(Oc3ccccc3F)c2C(F)(F)F)C[C@@H]1CN` [Example 38]: the IC50 was determined as 4.1 nM.

For the compound `CN1CCN(c2c(NC(=O)c3ccn(-c4ccnnc4)n3)ccc(Oc3ccccc3F)c2C(F)(F)F)C[C@@H]1CNC1CC1` [Example 89], the IC50 was 27 nM.

In the case of `CN(C)CCOc1cccc(-c2c(NC(=O)c3coc(-c4ccnnc4)n3)ccc(OC3CC3)c2C(F)(F)F)c1` [Example 114], the IC50 turned out to be 37 nM.

For `CN1CCN(c2c(NC(=O)c3ccn(CC(F)F)n3)ccc(Oc3ccc(F)cc3)c2C(F)(F)F)C[C@@H]1CN` [Example 28], the IC50 worked out at 240 nM.

Turning to `O=C(Nc1ccc(Oc2ccccc2F)c(C(F)(F)F)c1N1CCC[C@@H](CNC2CC2)C1)c1ccn(-c2ccnnc2)n1` [Example 36], the IC50 stood at 55 nM.

For `CNC[C@H]1CN(c2c(NC(=O)c3coc(-c4ccnnc4)n3)ccc(OC3CCC3)c2C(F)(F)F)CCN1C` [Example 100], the IC50 came out at 60 nM.

Regarding `NCCOc1cccc(-c2c(NC(=O)c3coc(-c4ccnnc4)n3)ccc(OC3CC3)c2C(F)(F)F)c1` [Example 65], the 50% inhibitory concentration (IC50) amounted to 22 nM.

For `NCC1(F)CCCN(c2c(NC(=O)c3ccn(-c4ccnnc4)n3)ccc(Oc3ccccc3F)c2C(F)(F)F)C1` (stereo not drawn) [Example 58], the IC50 was 21 nM.

Consider `CN1CCN(c2c(NC(=O)c3ccn(CC(F)F)n3)ccc(OC3CCC3)c2C(F)(F)F)C[C@@H]1CN` [Example 17], for which the IC50 came out at 190 nM.

In the case of `NCCOc1cc(-c2c(NC(=O)c3ccn(-c4ccnnc4)n3)ccc(OC3CCC3)c2C(F)(F)F)ccn1` [Example 79], the IC50 worked out at 7.8 nM.

As to `CN1CCN(c2c(NC(=O)c3ccn(CC(F)F)n3)ccc(Oc3ccccc3F)c2C(F)(F)F)C[C@H]1CN` [Example 19], the IC50 was determined as 960 nM.

On to `NC[C@@H]1CCCN(c2c(NC(=O)c3ccn(CC(F)F)n3)ccc(Oc3ccccc3)c2C(F)(F)F)C1` [Example 2], for which the IC50 was 28 nM.

For `N[C@@H]1CCN2CCN(c3c(NC(=O)c4coc(-c5ccnnc5)n4)ccc(OC4CC4)c3C(F)(F)F)C[C@@H]12` [Example 81], the IC50 is 110 nM.

As to `Cc1cc(C(=O)Nc2ccc(Oc3ccccc3F)c(C(F)(F)F)c2N2CCC[C@@H](CN)C2)nn1-c1ccnnc1` [Example 37], the IC50 was found to be 23 nM.

As to `CNC[C@H]1CN(c2c(NC(=O)c3coc(-c4ccnnc4)n3)ccc(Oc3ccccc3)c2C(F)(F)F)CCN1C` [Example 105], the IC50 turned out to be 46 nM.

Turning to `CNC[C@@H]1CN(c2c(NC(=O)c3ccn(-c4ccnnc4)n3)ccc(Oc3ccccc3F)c2C(F)(F)F)CCN1C` [Example 123, N-[4-(2-fluorophenoxy)-2-{(3R)-4-methyl-3-[(methylamino)methyl]piperazin1-yl}-3-(trifluoromethyl)phenyl]-1-(pyridazin-4-yl)-1H-pyrazole-3-carboxamide monobutanedioate], the half-inhibitory concentration (IC50) was found to be 4 nM.

Regarding `CN1CCN(c2c(NC(=O)c3coc(-c4ccnnc4)n3)ccc(Oc3ccccc3Cl)c2Cl)C[C@@H]1CN` [Example 57], the IC50 came out at 0.42 nM.

Regarding `CN1CCN(c2c(NC(=O)c3coc(-c4ccnnc4)n3)ccc(OC3CCCC3)c2C(F)(F)F)C[C@@H]1CN` [Example 41], the IC50 is 5 nM.

As to `CNC[C@H]1CN(c2c(NC(=O)c3ccn(-c4ccnnc4)n3)ccc(C3=CCOCC3)c2C(F)(F)F)CCN1C` [Example 50], the IC50 came to 55 nM.

Turning to `Cc1cc(C(F)(F)F)n2nc(C(=O)Nc3ccc(Oc4ccccc4)c(C(F)(F)F)c3N3CCC[C@@H](CN)C3)cc2n1` [Example 111], the IC50 is 280 nM.

Take `CNC[C@H]1CN(c2c(NC(=O)c3ccn(-c4ccnnc4)n3)ccc(C3CCCC3)c2C(F)(F)F)CCN1C` [Example 124]: the IC50 was determined as 3.8 nM.

Turning to `N#Cc1ccccc1Oc1ccc(NC(=O)c2ccn(CC(F)F)n2)c(N2CCC[C@@H](CN)C2)c1C(F)(F)F` [Example 32], the IC50 was determined as 100 nM.

Regarding `CN(C)[C@@H]1CCN2CCN(c3c(NC(=O)c4coc(-c5ccnnc5)n4)ccc(Oc4ccccc4F)c3C(F)(F)F)C[C@@H]12` [Example 120], the IC50 was 4.3 nM.

As for `NC[C@@H]1CCCN(c2c(NC(=O)c3ccn(CC(F)F)n3)ccc(OC3CC3)c2C(F)(F)F)C1` [Example 5], the IC50 was 330 nM.

For the compound `CNC[C@H]1CN(c2c(NC(=O)c3ccn(-c4ccnnc4)n3)ccc(OC3CCCC3)c2C(F)(F)F)CCN1C` [Example 44], the IC50 came to 8.6 nM.

For `N[C@H]1CCN2CCN(c3c(NC(=O)c4ccn(-c5ccnnc5)n4)ccc(Oc4ccccc4F)c3C(F)(F)F)C[C@H]12` [Example 84], the IC50 was 2.1 nM.

Regarding `CNC[C@H]1CN(c2c(NC(=O)c3ccn(-c4ccnnc4)n3)ccc(OC3CCC3)c2C(F)(F)F)CCN1C` [Example 99], the IC50 came out at 33 nM.

Take `CNC[C@H]1CN(c2c(NC(=O)c3ccn(CC(F)F)n3)ccc(Oc3ccccc3F)c2F)CCN1C` [Example 25]: the IC50 was 73 nM.

As to `CN1CCN(c2c(NC(=O)c3ccn(-c4ccnnc4)n3)ccc(Oc3ccccc3Cl)c2Cl)C[C@@H]1CN` [Example 56], the IC50 was found to be 0.89 nM.

Take `O=C(Nc1ccc(OC2CCC2)c(C(F)(F)F)c1-c1cnn(C2CCNCC2)c1)c1coc(-c2ccnnc2)n1` [Example 71]: the IC50 worked out at 21 nM.
